From patent publication US11540515B2, “Use of dialkoxybenzenes for control of honey bee mite varroa destructor” (Simon Fraser University, priority 2018, dated 2023)
Structures can show the parent of a compound that is named as a salt.

Columns and labels:
Varroa mites [1] = experiment: Evaluation of acaricidal effect: emerging bees loaded with Varroa mites in glass petri dish, compound on Parafilm; format: in vivo, Varroa destructor; conditions: for mites falling off bees: up to end of experiment; for acaricidal effect: highest amount tested (30 μl), end of 24 h
Experimental: The effect of the compounds was checked in free moving-mites freshly collected from the bottom board using fine paint brush. All collected Varroa were kept on emerging bees at room temperature until the experiment.
Compounds (code-labeled, Table 1) were prepared in hexane:ethyl acetate (1:1) in 10 mM concentration according to instructions. Dilutions only of compound “A” was prepared. […] This setup enabled the testing of all the compounds and to save the mites.
The assay was conducted in glass petri dish (90 mm diameter and 17 mm deep glass) containing moistened filter paper. Five emerging bees loaded with two Varroa mites were put into each plate. The bees were provided with candy (60% of pollen and 40% sugar). 10 μl or 30 μl volume of each compound or control mix was placed on Parafilm paper (5×5 cm) on the plates cover.

Varroa mites [2] = experiment: Example 6 behavioral dose response bio-assays of Varroa mites; format: in vivo; conditions: for mite paralysis/mortality: 1 mg
Description: Foragers were collected at the entrance of one or more honey bee hives by aspiration into a jar, when bees were flying back to the colony.
Initially, nurses were collected from an open brood frame of a honey bee hive. Bees apparently attending the brood were targeted for collection. As time passed and temperatures started to drop no open brood was observed, therefore subsequent collections targeted bees around sealed brood. At the end of the sampling period no sealed brood was present, so bees taken from the middle frame of a brood chamber were considered nurses.
Both foragers and nurses were immediately transferred to individual plastic cages (118×98×81 mm: H×W×D), fed with syrup (2:1) and kept overnight in an incubator at 30° C. and 70% RH. Next day, cages were inspected for any dead bees to be removed before freeze killing the bees on dry ice.
For Varroa mite collection, adult bees were taken from the brood chamber's central frames of a mite-infested hive using a glass jar. Bees were fed with syrup (2:1), and kept in an incubator at 30° C. and 70% RH until needed. First collections were made from frames with open and sealed brood, later only from sealed brood frames.
Mite-infested bees in the glass jar were dusted with icy sugar and shaken over a large plastic weighing boat. Dislodged Varroa were immediately transferred with a fine paint brush to a wet filter paper in a plastic petri dish to avoid desiccation. Individual mites were placed then onto the middle of a glass petri dish bottom (10 cm diameter) with a fresh freeze-killed forager or nurse bee on opposite sides of the plate. Synthesized compounds were applied onto a 1 cm^2 Parafilm square attached to the center of the petri dish cover's inner face, Hexane was used as control.
The bio-assays with a forager and a nurse bee, Varroa mite, and synthesized compounds were set in glass petri dishes placed into an incubator at 30° C. and 70% relative humidity. […] Mite paralysis and death were recorded after 3 h and 5 h.

Varroa destructor mites [3] = experiment: Example 3 paralysis assays in petri dishes (dose response, screen, blends); format: in vivo
Experimental: Paralysis assays. These assays were done in 10 cm glass Petri dishes. A 3×3 cm piece of Parafilm was stuck to the lid of the dish, in the middle. The Parafilm received […], either pure (controls) or with the compound (treatments). The bottom of the dish received one freshly thawed nurse and one freshly thawed forager, placed ˜3 cm from the center of the dish. One mite was placed between the nurse and the forager, the lid was closed and groups of dishes were placed in an incubator at 30° C. Humidity levels were kept at around 35-40%.
Observation times were 3 h and 5 h. Mites were scored for whether the mite could move normally, was paralyzed (had difficulty moving) or dead (not moving).
Each assay was done in 5 technical replicates, in two biological replicates. Thus, each biological replicate was scored out of 5.
(§1) Experiments were performed in the dishes: i) dose response assays with a single compound at different doses of compound on the Parafilm (1 ng, 10 ng, 100 ng, 1 μg, 10 μg, 100 μg, 1 mg and 10 mg), ii) a screen with six compounds, all at a 1 mg dose, iii) an assay with blends of compounds 3c{3,6} and 3c{6,6}, and iv) one assay without bees (only to check for mite paralysis and death), with compounds 3c{3,6} and 3c{6,6}(pure or 1:1 blend), at 0.5 and 1 mg doses.

Varroa [4] = experiment: Example 5 Varroa death and paralysis assay, single compounds and blend; set-up: species or system Varroa destructor; conditions: in vivo
Experimental: Assays were done in 9 cm glass Petri dishes. A 2.5×2.5 cm piece of Parafilm was stuck to the lid of the dish, in the middle. 120 μL water were put on filter paper in the middle of the plate. The Parafilm received 10 μL of hexane, either pure (controls) or with the compound (treatments). The bottom of the dish received one freshly thawed nurse and one freshly thawed forager, placed at opposite sides. One mite was placed between the nurse and the forager, the lid was closed and groups of dishes were placed in an incubator at 30° C. Observation times were at 3 h, 5 h and 20 h. Mites were scored for whether the mite could move normally, was paralyzed (had difficulty moving) or dead (not moving). Four types of experiment were performed in the dishes: i) dose response assays with a single compound at different doses of compound on the Parafilm (1 ng, 10 ng, 100 ng, 1 μg, 10 μg, 100 μg, 1 mg) an assay with blends of compounds 3c{3,6} and 3c{6,6} (pure or 1:1 blend) at 0.5 mg and […].

Varroa destructor mites [5] = experiment: Example 3 mite paralysis/death in the absence of bees; format: in vivo; conditions: no bees, 4.5 h
Experimental: as §1
Compounds 3c{3,6}, 3c{6,6} were tested on mites in the absence of bees, alone and as a 1:1 blend. Mite paralysis and death were checked every 30 min, up to 4.5 h after initial exposure. Four doses were tested: 0.2, 0.5, 1 and 10 mg.

Varroa [6] = conditions: earlier evaluation; cited from earlier work
honey bee antennae = conditions: earlier evaluation; cited from earlier work

With C=CCOc1ccccc1OCCC [3a{3,6}, 1-allyloxy-2-propoxybenzene] the “mites falling off bees” value (Varroa mites [1]) was “occasionally fell off bees but reattached quickly”.
CCOc1cccc(OCC)c1 [3b{2,2}, 1,3-diethoxybenzene] showed a mite paralysis/mortality (Varroa mites [2]) of 50%.
With C=CCOc1ccc(OCC)cc1 [3c{2,6}, 1-(allyloxy)-4-ethoxybenzene] the “paralysis and mite death in screen” value (Varroa destructor mites [3]; 1 mg dose, 3 h) was “little paralysis”.
With CCCOc1ccc(OCCC)cc1 [3c{3,3}, 1,4-dipropoxybenzene] the acaricidal effect (Varroa mites [1]) was “clear acaricidal effect” and the “paralysis and mite death in screen” value (Varroa destructor mites [3]; 1 mg dose, 3 h) was “most reliable mite paralysis”.
For CCCCOc1ccc(OCCC)cc1 [3c{4,3}, 1-butoxy-4-propoxybenzene], the acaricidal effect (Varroa mites [1]) was “somewhat effective” and the “paralysis and mite death in screen” value (Varroa destructor mites [3]; 1 mg dose, 3 h) was “most death”.
In the case of C=CCOc1ccc(OCCCC)cc1 [3c{4,6}, 1-(allyloxy)-4-butoxybenzene], the acaricidal effect (Varroa mites [1]) is reported as “clear acaricidal effect” and the “activity relative to compound 3c{3,6} in screen” value (Varroa destructor mites [3]; 1 mg dose) is reported as “slightly less active”.
In the case of C=CCOc1ccc(OCC=C)cc1 [3c{6,6}, 1,4-bis(allyloxy)benzene], the acaricidal activity alone (Varroa [4]) is reported as “acaricidal”, the “mite paralysis+death” value (Varroa destructor mites [5]; 0.2 mg) is reported as “no activity” and the “mite paralysis+death” value (Varroa destructor mites [5]; 0.5 mg) is reported as “no activity”. For the same molecule, the “mite paralysis or death” value (Varroa destructor mites [5]; 10 mg) was 100%, the mite paralysis/mortality (Varroa mites [2]) was 50% and the “doses at which mites were paralyzed or killed” value (Varroa mites [2]; FIG. 9 / FIG. 10) was no less than 10 µg. For the same molecule, the acaricidal effect (Varroa mites [1]) was “clear acaricidal effect”, the “mites falling off bees” value (Varroa mites [1]) was “occasionally fell off bees but reattached quickly” and the “fold less active than 3c{3,6} with regard to paralysis and death of mites” value (Varroa destructor mites [3]; from EC50) was “ca. 4 ×”. For the same molecule, the “EC50 for paralysis and eventual death of mites” value (Varroa destructor mites [3]; neat compound on the source, vapors only, 3 h) was 182 µg.
For C=CCOc1ccc(OCCCCC)cc1 [3c{n5,6}, 1-(allyloxy)-4-(pentyloxy)benzene], the “mites falling off bees” value (Varroa mites [1]) was “occasionally fell off bees but reattached quickly”.
In the case of CCN(CC)C(=O)c1cccc(C)c1 [DEET, N,N-diethyl-meta-toluamide], the “ability of mites to reach a bee” value (Varroa [6]) is listed as “reduced”, the “host preference of Varroa” value (Varroa [6]) is listed as “without affecting” and the “chemosensing and behavior of honey bees” value (honey bee antennae) is listed as “not found to affect”.
In the case of Cc1ccc(C(C)C)c(OC=O)c1 [thymyl formate], the acaricidal effect (Varroa mites [1]) is reported as “somewhat effective”.
